# Experimental data taken from patent publication US7160894B2, “Tricyclic compound” (Asahi Kasei Pharma Corporation, priority 2003, dated 2007).
# What was measured:
# [1] = tested on: thoracic aorta constricted with phenylephrine; test: Vasoconstriction inhibitory action (Test Example 2); parameters: species or system Rats (Wistar); conditions: test compound 1 μM; rat thoracic aorta constricted with phenylephrine 1 μM
# Description: Rats (Wistar, 11-week old) were bleeded to death and laparotomized to take out the thoracic aorta. That aorta was cut into a ring of a length of about 3 mm in a conventional manner (Asano, T., et al., J. Pharmacol. Exp. Ther., 241, pp. 1033–1040 (1987)) and hung in 10-ml organ bath filled with Krebs-Hensright nutrient solution bubbled with a mixed gas of 95% O2 and 5% CO2. One end of the blood vessel was connected to an isometric transducer (FD Pickup TB-912T, Nihon Kohden) and applied with 2.5 g of resting tension, and constriction and relaxation reactions of the aorta were recorded.
# The aorta was constricted with phenylephrine (1 μM, Sigma) and then added with a test compound (1 μM), and the vasoconstriction inhibitory action thereof was observed. The vasoconstriction inhibitory actions of the test compounds were calculated as relaxation ratios, which were based on the vasoconstriction with phenylephrine observed immediately before the addition of the test compounds taken as 100%.
# intraocular pressure = test: Intraocular pressure reducing action (Test Example 4); assay type: in vivo, Japanese white rabbit; conditions: rabbit, 50 μl of aqueous solution dropped to the left eye
# Description: A Japanese white rabbit having a body weight of about 2 kg was placed in a positioner and naturalized for one week before the experiment. An ophthalmologic local anesthesant (Benoxil) was administered to the left eye, and then intraocular pressure was measured by using a tonometer (Classic 30, Solan). The initial value of the intraocular pressure was measured, then 50 μl of an aqueous solution of a test compound was dropped to the left eye at various concentrations, and the intraocular pressure was measured with passage of time.
# [2] = tested on: cerebral hippocampal neurons; test: Neurite outgrowth action (Test Example 5); assay type: cell-based, Sprague-Dawley rats; conditions: rat hippocampal neurons, 24 hours after addition
# Description: From 18 day-old Sprague-Dawley rats, cerebral hippocampal neurons were prepared according to the method of Neuman et al. (Neuman, H. R. et al., J. Neurosci., 22, pp. 854–862, 2002). The prepared neurons were cultured for 24 hours according to the method of Tanaka et al. (Tanaka, H. et al., J. Cell Biol., 158 (2), pp. 321–329, 2002), then the medium was exchanged with fresh medium, and test medicaments of various concentrations or equivalent amounts of vehicle were added. Twenty-four hours after the addition of the medicaments, neurite length of each neuron was measured for the medicament-added group and the no-addition group, and compared. The neurite length was evaluated according to the method of Neuman et al. (Neuman, H. R. et al., J. Neurosci., 22, pp. 854–862, 2002).
# [3] = tested on: lipopolysaccharide-induced pulmonary inflammation; test: Pulmonary inflammation suppressing action, LPS-induced (Test Example 8); assay type: in vivo, BALB/c female mice; conditions: mice, LPS inhalation, test compound by inhalation over 10 minutes, 3 hours after administration
# Description: According to Gonzales de Moraes, V L., et al., Br. J. Pharmacol., 123, pp. 631–6, 1998, suppressing action on pulmonary inflammation was studied. BALB/c female mice (7-week old) were used for the test, as the compound administration group and positive control group, each consisting of 7 mice, as well as the negative control group consisting of 5 mice. For induction of inflammation, a 0.03% physiological saline solution of a lipopolysaccharide (LPS, a mixture derived from Escherichia coli O55 and B5 strains, Sigma) was used. A test compound was dissolved in physiological saline to prepare solutions of various concentrations. The test animals were first inhaled with the aforementioned lipopolysaccharide solution for 10 minutes by using a pressurization type nebulizer (PARI-IS2) to induce inflammation. Then, 1 minute after the completion of the inhalation of the lipopolysaccharide solution, the animals were administered with a solution of test compound at various concentrations over 10 minutes by inhalation using the aforementioned nebulizer. The mice of the positive control group were administered with the same volume of physiological saline instead of the test compound solution over 10 minutes by inhalation. Three hours after the administration of the test compound, pulmonary cavities of the test animals were washed with physiological saline, and the total infiltrated leucocyte (WBC) number was counted.
# [4] = tested on: phosphorylated myosin regulatory light chain in neutrophils; test: Action on amount of phosphorylated myosin regulatory light chain in the cells (Test Example 1); assay type: cell-based; conditions: Neutrophil, 5 min; human neutrophils, reaction at 25° C. for 5 minutes; read-out: concentration at which the phosphorylation of myosin regulatory light chain is inhibited (IC50)
# Description: A volume of 50 to 100 ml of peripheral blood collected from healthy volunteers was centrifuged by using Mono-Poly separator solution (Dainippon Pharmaceutical) to prepare a neutrophil containing fraction. The neutrophils were washed with PBS(−) and resuspended in Hanks' Balanced Salt Solution (HBSS+, Gibco) to prepare a cell suspension (8×10^6/ml). The cell suspension was diluted to 5×10^6/ml, introduced into Eppendorf tubes in a volume of 0.4 ml each, then 0.1 ml each of solutions of a test compound at various concentrations were added to the suspension and allowed to react at 25° C. for 5 minutes. After the reaction, 0.1 ml of trichloroacetic acid solution was added to each reaction, the reaction mixture was gently shaken and centrifuged at 12,000 rpm (4° C., 5 minutes), and the supernatant was removed. Subsequently, 3 μl of 1 M Tris solution was added to the residue, the mixture was further mixed with 50 μl of extraction buffer (8 M urea, 0.02% 2-mercaptoethanol, 0.002% bromophenol blue) and left stand at room temperature for 1 hour. Then, the reaction mixture was loaded on a spin column (0.45 μm, Millipore) to remove the insoluble solids and a sample buffer for SDS polyacrylamide gel electrophoresis (25 mM, Tris-HCl pH 6.8, 2.5% 2-mercaptoethanol, 2% sodium dodecylsulfate, 5% sucrose, 0.002% bromophenol blue as final concentrations) was added, and 10 μl of each sample was subjected to electrophoresis.
# The gel after the electrophoresis was blotted on a nitrocellulose membrane (BioRad), blocked with 5% skim milk, and reacted successively with antibodies pLC1 (Sakurada K. et al, Am. J. Physiol., 274, C1563–C1572 (1998)), which specifically recognize the phosphorylated myosin regulatory light chain, and donkey anti-mouse IgG (Chemicon) conjugated with horseradish peroxidase. The band of the phosphorylated myosin regulatory light chain was detected on a film by using ECL Plus Kit (Amersham Pharmacia Biotech). This band was subjected to quantification using a densitometer. By using this value, the inhibitory ratio (%) for phosphorylation of the myosin regulatory light chain was calculated by using the following equation. Phosphorylation inhibition ratio (%)=1−(Band intensity of phosphorylated myosin regulatory light chain with addition of the test compound/Band intensity of phosphorylated myosin regulatory light chain without addition of the test compound)×100
# Further, the phosphorylation inhibition ratio was calculated with changing the concentrations of the test compound, and a compound concentration providing an inhibition ratio of 50% was obtained as IC50.
# neutrophils = test: Neutrophil migration inhibitory action, Boyden Chamber, FMLP (Test Example 6); assay type: cell-based; conditions: 0.5 h, human neutrophils, FMLP 1 μM, 37° C., 30 minutes, read-out: concentration at which the migration of neutrophils is inhibited (IC50)
# Description: Neutrophils were isolated from 50 to 100 ml of peripheral blood collected from healthy human donors by the method described in Test Example 1 to obtain a cell suspension (8×10^6/ml). Subsequently, solutions of a test compound at various concentrations were introduced into wells of a 96-well plate in a volume of 125 μl per well, the cell suspension of an equivalent volume was added to it and the plate was preincubated at room temperature for 5 minutes. During the preincubation, FMLP (1 μM, Sigma) solution was added to the lower chamber to set Boyden Chamber, the preincubated cell suspension was added to the upper chamber in a volume of 200 μl per well, and the cells were allowed to migrate at 37° C. under 5% carbon dioxide for 30 minutes. The filter after the migration was collected, and the non-migrated cells adhered to the surface that faced the upper chamber were carefully wiped off. Then, the migrated cells on the back surface were stained with DifQuick dye solution (International Reagents), washed with water and dried, and then absorbance was measured at 595 nm. The inhibition ratio against migration (%) of a test compound was calculated by using the following equation: Migration inhibition ratio (%)=(1−Absorbance of the group with addition of test compound/Absorbance of the group without addition of test compound)×100
# Further, the migration inhibitory ratio was calculated with changing the test compound concentration, and a compound concentration providing an inhibition ratio of 50% was obtained as IC50. The compounds of the present invention obtained in Examples 1, 11, 12, 13, 14, 15, 16, 18, 19, 20, 21, 22, 24, 31, 41, 42, 47, 52, 53, 54, 55, 56, 57, 58, 59, 60, 62, 63, 64, 65, 66, 67, 68, 72, 73, 74, 75, 76, 77, 78, 79, 80, 81, 82, 83, 84, 87, 88, 89, 90, and 91 inhibited the migration of neutrophils at a concentration of 40 μM or less, and further, the compounds of Examples 1, 11, 12, 13, 14, 15, 19, 21, 22, 24, 31, and 41 inhibited the migration of neutrophils at a concentration of 10 μM or less. Further, trans-benzyl-[4-(2,3-dihydro-1,5-diazaphenalen-1-yl)cyclohexyl]amine inhibited the migration of neutrophils at a concentration of 40 μM or less.
Structure (SMILES),vasoconstriction inhibitory action (relaxation ratio) [1],intraocular pressure reducing action (intraocular pressure),neurite outgrowth (neurite length) [2],"pulmonary inflammation, total infiltrated leucocyte (WBC) number [3]",IC50 [4] [µM],IC50 (neutrophils) [µM]
Cl.O=C(O)CCN1CCC(N2CCc3cncc4cccc2c34)CC1 [Example 16],significant vasoconstriction inhibitory action,significant intraocular pressure reducing action,significant neurite outgrowth axis extension,,,
COCCN1CCC(N2CCc3cncc4cccc2c34)CC1.Cl [Example 19],significant vasoconstriction inhibitory action,significant intraocular pressure reducing action,significant neurite outgrowth axis extension,significantly improved the pathological condition,,
CN[C@H]1CC[C@H](N2CCc3cncc4cccc2c34)CC1.Cl [Example 41],significant vasoconstriction inhibitory action,significant intraocular pressure reducing action,significant neurite outgrowth axis extension,significantly improved the pathological condition,,
CC(=O)NCCN1CCC(N2CCc3cncc4cccc2c34)CC1 [Example 42],,significant intraocular pressure reducing action,,,≤ 40,≤ 40
"CN(C)[C@H]1CC[C@H](N2CCc3cncc4cccc2c34)CC1 [Example 53, trans-[4-(2,3-dihydro-1,5-diazaphenalen-1-yl)cyclohexyl]dimethylamine]",,significant intraocular pressure reducing action,,,≤ 40,≤ 40
"FC1CNCCC1N1CCc2cncc3cccc1c23 (stereo not shown) [Example 54, 1-(3-fluoropiperidin-4-yl)-2,3-dihydro-1H-1,5-diazaphenalene]",,significant intraocular pressure reducing action,,,≤ 40,≤ 40
"CC(=O)N(C)CCN1CCC(N2CCc3cncc4cccc2c34)CC1 [Example 59, N-{2-[4-(2,3-dihydro-1,5-diazaphenalen-1-yl)piperidin-1-yl]ethyl}-N-methylacetamide]",,significant intraocular pressure reducing action,,,≤ 40,≤ 40
"O=C1CCN1CCN1CCC(N2CCc3cncc4cccc2c34)CC1 [Example 60, 1-{2-[4-(2,3-dihydro-1,5-diazaphenalen-1-yl)piperidin-1-yl]ethyl}azetidin-2-one]",,significant intraocular pressure reducing action,,,≤ 40,≤ 40
"c1ccc(CN[C@H]2CC[C@H](N3CCc4cncc5cccc3c45)CC2)cc1 [trans-benzyl-[4-(2,3-dihydro-1,5-diazaphenalen-1-yl)cyclohexyl]amine]",,,,,≤ 40,≤ 40
